According to US10919896B2, “Preparation and uses of pyrimidinone derivatives” (Cancer Research Technology Limited, priority 2016, dated 2021):

Columns and labels:
[1] = biological target: T1, Cdc7/ASK (Homo sapiens, UniProt O00311); assay: Cdc7 Biochemical Assay Method 1: 384 well ELISA, whole protein substrate MCM2, antibody against Phospho MCM2 (S53); set-up: purchased; settings: 2 μM ATP, read-out: Biochemical Method 1 (pIC50) (converted)
In short: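 MCM2 protein substrate was coated on nickel-chelate plates, then Cdc7/ASK was added with 2 μM ATP in 50 mM Tris-HCl pH 8.5, 10 mM MgCl2, 1 mM DTT, 4% DMSO, 90 min at room temperature. Phospho-MCM2 (S53) was detected by ELISA with an AP secondary and PNPP absorbance. IC50 was derived from % inhibition versus no-compound and no-enzyme controls.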

[2] = biological target: T1, Cdc7/ASK; assay: Cdc7 Biochemical Assay Method 2: 384 well mobility shift assay (EZ Reader II), MCM2 peptide substrate; set-up: purchased; settings: 12.5 μM ATP, read-out: Biochemical Method 2 (pIC50) (converted)
Procedure: This protocol describes a method for assaying Cdc7/ASK for activity. The assay is a 384 well mobility shift assay (MSA) run on the EZ Reader II microfluidics plate reader (Caliper LifeSciences), utilising a peptide substrate based on the MCM2 sequence. The assay technology is based on the change in mobility between the peptide substrate and the phosphorylated product. A 10 nL volume of the reaction mixture is sipped onto the microfluidic chip where the substrate and product are separated by electrophoresis and detected via laser-induced fluorescence (488 nm LED). The reaction can be monitored in real-time for kinetic experiments or as an end-point for IC50 determinations. The % conversion of substrate is calculated from peak heights of product (P) and substrate (S) peptides (% conversion=P/(P+S)*100).
• 10× Assay Buffer: 200 mM HEPES pH 8, 100 mM MgCl2, 0.1% v/v Triton X-100 and 15 mM DTT. Prepare fresh buffer from 1 M HEPES pH 8, 1 M MgCl2, 1 M DTT and 10% Triton x-100 stocks for each experiment. • Cdc7/ASK is purchased from commercial suppliers and used in the assay at a final assay concentration of 0.847 ng/μL or 9.2 nM. • MCM2 peptide is purchased from commercial suppliers and used in the assay at a final assay concentration of 2.5 μM. • ATP used in the assay at a final assay concentration of 12.5 μM. Methods • 1. Prepare intermediate (daughter) compound plate by transferring 2 μL of compound from the mother plate to 18 μL of 33.3% DMSO in a clear polypropylene plate. • 2. Dry-spot 1 μL of compound from the intermediate compound plate to empty assay plate. • 3. Add 5 μL of 1.694 ng/μL CDC7/ASK working solution to ‘test’ and ‘control’ wells or […] of 2× Assay Buffer to ‘blank’ wells. • 4. Add 4 μL 2.5 μM peptide/12.5 μM ATP working solution to all wells. • 5. Incubate at 37° C. for 1 hour then remove from the incubator and leave for a further 1 hour at room temperature. • 6. Place plate into an EZReader II to read.
Percentage inhibition values were calculated from % of substrate conversion values, using the no compound (DMSO) and no enzyme control values as 0% and 100% inhibition, respectively. IC50 determination was performed with ExcelFit software (IDBS) using curve fit 205. Z′ factors were determined for each plate tested and were all above 0.5.

T1 sequence (O00311 whole entry): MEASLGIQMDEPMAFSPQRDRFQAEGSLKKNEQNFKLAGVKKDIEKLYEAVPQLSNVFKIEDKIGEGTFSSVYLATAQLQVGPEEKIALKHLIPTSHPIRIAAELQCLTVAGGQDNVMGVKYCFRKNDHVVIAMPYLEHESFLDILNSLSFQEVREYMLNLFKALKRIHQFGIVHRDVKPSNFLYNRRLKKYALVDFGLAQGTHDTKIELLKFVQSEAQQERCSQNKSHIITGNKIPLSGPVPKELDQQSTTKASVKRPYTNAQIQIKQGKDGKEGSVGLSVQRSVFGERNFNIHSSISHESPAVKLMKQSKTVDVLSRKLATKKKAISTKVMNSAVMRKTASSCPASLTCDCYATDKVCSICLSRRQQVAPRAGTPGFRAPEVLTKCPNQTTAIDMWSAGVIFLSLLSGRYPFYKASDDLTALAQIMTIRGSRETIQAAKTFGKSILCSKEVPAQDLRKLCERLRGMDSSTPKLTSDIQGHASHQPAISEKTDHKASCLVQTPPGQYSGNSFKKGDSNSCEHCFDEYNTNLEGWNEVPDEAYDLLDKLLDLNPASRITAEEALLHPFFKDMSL
T1 sequence (Q9UBU7 whole entry partner): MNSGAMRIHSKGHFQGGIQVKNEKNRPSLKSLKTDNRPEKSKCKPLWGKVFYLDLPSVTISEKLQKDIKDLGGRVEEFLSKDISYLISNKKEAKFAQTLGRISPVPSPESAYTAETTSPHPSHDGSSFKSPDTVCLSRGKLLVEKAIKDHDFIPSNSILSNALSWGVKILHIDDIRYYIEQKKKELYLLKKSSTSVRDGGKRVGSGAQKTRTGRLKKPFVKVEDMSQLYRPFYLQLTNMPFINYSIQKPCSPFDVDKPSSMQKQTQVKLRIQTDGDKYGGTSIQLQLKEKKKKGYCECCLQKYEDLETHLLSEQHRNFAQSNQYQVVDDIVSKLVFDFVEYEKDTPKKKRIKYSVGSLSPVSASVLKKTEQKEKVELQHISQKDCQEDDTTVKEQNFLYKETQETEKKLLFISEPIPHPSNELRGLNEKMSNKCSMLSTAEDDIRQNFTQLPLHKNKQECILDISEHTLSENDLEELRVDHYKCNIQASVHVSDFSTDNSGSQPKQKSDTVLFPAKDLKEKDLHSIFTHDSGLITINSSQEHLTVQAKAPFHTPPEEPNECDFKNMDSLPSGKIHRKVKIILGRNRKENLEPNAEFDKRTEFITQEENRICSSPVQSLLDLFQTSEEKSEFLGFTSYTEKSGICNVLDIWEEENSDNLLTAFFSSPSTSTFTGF

SMILES | IC50 [1] [nM] | IC50 [2] [nM]
O=c1[nH]c(-c2ccnc(F)c2)nc(N2CCCC(F)(F)C2)c1Cl [Compound 90, 5-chloro-4-(3,3-difluoro-1-piperidyl)-2-(2-fluoro-4-pyridyl)-1H-pyrimidin-6-one] | 0.851 | –
O=c1[nH]c(-c2ccncc2)nc(N2CCN(CC(F)F)CC2)c1Cl [Compound 147] | 4.27 | –
C[C@@H]1CNCCN1c1nc(-c2ccncc2)[nH]c(=O)c1Cl [Compound 364] | 0.389 | 0.501
O=c1[nH]c(-c2ccnc(F)c2)nc(N2CCN[C@@H](C(F)(F)F)C2)c1Cl [Compound 314] | 1.12 | 0.575
C[C@H]1CN(c2nc(-c3ccncc3)[nH]c(=O)c2Cl)CCN1 [Compound 130] | 2.57 | –
NC[C@H]1CCCN(c2nc(-c3ccnc(F)c3)[nH]c(=O)c2Cl)C1 [Compound 362] | 1.66 | 0.741
O=c1[nH]c(-c2ccncc2)nc(N2CCN[C@H](C(F)(F)F)C2)c1Cl [Compound 139] | 9.55 | –
CC(C)[C@H]1CN(c2nc(-c3ccnc(F)c3)[nH]c(=O)c2Cl)CCN1 [Compound 170] | 1.1 | 1.17
CC(C)(C)[C@H]1CN(c2nc(-c3ccncc3)[nH]c(=O)c2F)CCN1 [Compound 185] | 0.776 | 0.776
C[C@@H]1CNCCN1c1nc(-c2ccnc(F)c2)[nH]c(=O)c1Cl [Compound 323] | – | 0.575
CC(C)[C@H]1CN(c2nc(-c3ccncc3)[nH]c(=O)c2F)CCN1 [Compound 308] | 0.794 | 0.912
O=c1[nH]c(-c2ccnc(F)c2)nc(N2CCOCC2)c1Cl [Compound 316] | 1.32 | –
N[C@@H]1CCCN(c2nc(-c3ccnc(F)c3)[nH]c(=O)c2Cl)C1 [Compound 319] | – | 1.51
O=c1[nH]c(-c2ccnc(F)c2)nc(N2CCNCC2)c1Cl [Compound 360] | 1.51 | –
NC[C@@H]1CCCN(c2nc(-c3ccnc(F)c3)[nH]c(=O)c2Cl)C1 [Compound 363] | 4.68 | 1.78
O=c1[nH]c(-c2ccncc2)nc(N2CCN[C@@H](C(F)(F)F)C2)c1Cl [Compound 180] | 1.45 | –
N[C@H]1CCCN(c2nc(-c3ccnc(F)c3)[nH]c(=O)c2Cl)C1 [Compound 317] | – | 1.02
O=c1[nH]c(-c2ccncc2)nc(N2CCCOCC2)c1Cl [Compound 186] | 3.09 | 3.89
